From ChEMBL document CHEMBL4715899, “In-situ side-chain peptide cyclization as a breaker strategy against the amyloid aggregating peptide” (Bioorg Med Chem, 2021)
Calls of active or inactive are those of the source. The calls are words filed in the database; no cut-off is given here. Residues, ends and D or L forms follow the SMILES beside them. *: point of attachment. OBn = c1ccc(CO*)cc1

How the values were obtained:
Homo sapiens [1] = species on record: Homo sapiens; test: Disruption of preformed amyloid beta (1 to 40) (unknown origin) aggregation assessed as reduction in fibril formation at protein to ligand concentration ratio of 1:1 to 1:5 after 7 days by CD spectroscopic analysis; conditions: time 7.0 day
Homo sapiens [2] = species on record: Homo sapiens; test: Disruption of preformed amyloid beta (1 to 40) (unknown origin) aggregation assessed as reduction in fibril formation at protein to ligand concentration ratio of 1:1 to 1:5 after 7 days by thioflavin-T fluorescence assay; conditions: time 7.0 day
[3] = Amyloidogenic property of compound in PBS buffer at pH 7.4 assessed as fibrillar assembly at 50 uM after 7 days by Congo-Red staining based birefringence anlaysis; conditions: time 7.0 day
Homo sapiens [4] = species on record: Homo sapiens; test: Inhibition of amyloid beta (1 to 40) (unknown origin) aggregation at protein to ligand concentration ratio of 1:1 to 1:5 after 7 days by CD spectroscopic analysis; conditions: time 7.0 day
[5] = Amyloidogenic property of compound in PBS buffer at pH 7.4 assessed as fibrillar assembly at 50 uM after 7 days by TEM anlaysis; conditions: time 7.0 day
Homo sapiens [6] = species on record: Homo sapiens; test: Disruption of preformed amyloid beta (1 to 40) (unknown origin) aggregation assessed as reduction in fibril formation at protein to ligand concentration ratio of 1:1 to 1:5 after 4 to 7 days by FTIR analysis; conditions: time 4-7 day
Homo sapiens [7] = species on record: Homo sapiens; test: Inhibition of amyloid beta (1 to 40) (unknown origin) aggregation assessed as fibril formation at protein to ligand concentration ratio of 1:1 to 1:5 after 7 days by thioflavin-T fluorescence assay; conditions: time 7.0 day
Homo sapiens [8] = species on record: Homo sapiens; test: Disruption of preformed amyloid beta (1 to 40) (unknown origin) aggregation assessed as reduction in fibril formation at protein to ligand concentration ratio of 1:1 to 1:5 after 4 to 7 days by Congo-Red staining based birefringence anlaysis; conditions: time 4-7 day
[9] = Aggregation property of the compound in PBS buffer at pH 7.4 at 50 uM after 7 days by thioflavin-T fluorescence assay; assay type: physicochemical; conditions: pH 7.4, 168 h, time 7 day
Homo sapiens [10] = species on record: Homo sapiens; test: Inhibition of amyloid beta (1 to 40) (unknown origin) aggregation assessed as fibril formation at protein to ligand concentration ratio of 1:1 to 1:5 after 7 days by TEM analysis; conditions: time 7.0 day
Homo sapiens [11] = species on record: Homo sapiens; test: Disruption of preformed amyloid beta (1 to 40) (unknown origin) aggregation assessed as reduction in fibril formation at protein to ligand concentration ratio of 1:1 to 1:5 after 7 days by FTIR analysis; conditions: time 7.0 day
Homo sapiens [12] = species on record: Homo sapiens; test: Inhibition of amyloid beta (1 to 40) (unknown origin) aggregation assessed as fibril formation at protein to ligand concentration ratio of 1:1 to 1:5 after 7 days by Congo-Red staining based birefringence anlaysis; conditions: time 7.0 day
Homo sapiens [13] = species on record: Homo sapiens; test: Inhibition of amyloid beta (1 to 40) (unknown origin) aggregation at protein to ligand concentration ratio of 1:1 to 1:5 after 7 days by FTIR analysis; conditions: time 7.0 day
Homo sapiens [14] = species on record: Homo sapiens; test: Inhibition of amyloid beta (1 to 40) (unknown origin)-induced pore formation in large unilamellar vesicles at 10 days pretested 1:5 ratio of amyloid beta (1 to 40) to ligand concentration followed by LUV treatment and measured up to 72 hrs by carboxy-fluorescein dye assay; conditions: time 10.0 day
Homo sapiens [15] = species on record: Homo sapiens; test: Inhibition of preformed amyloid beta (1 to 40) (unknown origin)-induced pore formation in large unilamellar vesicles at 10 days pretested 1:5 ratio of amyloid beta (1 to 40) to ligand concentration followed by LUV treatment and measured up to 172 hrs by carboxy-fluorescein dye assay; conditions: time 10.0 day
Homo sapiens [16] = species on record: Homo sapiens; test: Inhibition of amyloid beta (1 to 40) (unknown origin)-induced pore formation in large unilamellar vesicles at 10 days pretested 1:5 ratio of amyloid beta (1 to 40) to ligand concentration followed by LUV treatment and measured up to 120 mins by carboxy-fluorescein dye assay; conditions: time 10.0 day
Homo sapiens [17] = species on record: Homo sapiens; test: Inhibition of preformed amyloid beta (1 to 40) (unknown origin)-induced pore formation in large unilamellar vesicles at 10 days pretested 1:5 ratio of amyloid beta (1 to 40) to ligand concentration followed by LUV treatment and measured up to 120 mins by carboxy-fluorescein dye assay; conditions: time 10.0 day

Activity (Homo sapiens [1])	Activity (Homo sapiens [2])	inhibition (Homo sapiens [4])	Activity (Homo sapiens [6])	inhibition (Homo sapiens [7])	Activity (Homo sapiens [8])	Activity [9]	inhibition (Homo sapiens [10])	Activity (Homo sapiens [11])	inhibition (Homo sapiens [12])	inhibition (Homo sapiens [13])	inhibition (Homo sapiens [14])	inhibition (Homo sapiens [15])	inhibition (Homo sapiens [16])	inhibition (Homo sapiens [17])	SMILES	Activity [3]	Activity [5]
Active	Active	Active	Active	Active	Active	Not Active	Active	Active	Active	Active					CC(=O)N[C@@H](CCCCN)C(=O)N[C@@H](C)C(=O)N[C@@H](CCC(=O)OCc1ccccc1)C(=O)N[C@@H](Cc1ccccc1)C(=O)N[C@@H](Cc1ccccc1)C(=O)N[C@@H](C)C(N)=O (Ac-KAE(OBn)FFA-NH2)	inactive	inactive
Active	Active	Active	Active	Active	Active	Not Active	Active	Active	Active	Active	Active	Active	Active	Active	CC(=O)N[C@@H](CCCCN)C(=O)N[C@@H](CC(C)C)C(=O)N[C@@H](CCC(=O)OCc1ccccc1)C(=O)N[C@@H](Cc1ccccc1)C(=O)N[C@@H](Cc1ccccc1)C(=O)N[C@@H](C)C(N)=O (Ac-KLE(OBn)FFA-NH2)	inactive	inactive
Active	Active	Active	Active	Active	Active	Not Active	Active	Active	Active	Active					CC(=O)N[C@@H](CCCCN)C(=O)NCC(=O)N[C@@H](CCC(=O)OCc1ccccc1)C(=O)N[C@@H](Cc1ccccc1)C(=O)N[C@@H](Cc1ccccc1)C(=O)N[C@@H](C)C(N)=O (Ac-KGE(OBn)FFA-NH2)	inactive	inactive
